# Target: T1, hPRDM9 (amino acids 195-385) (Homo sapiens, UniProt Q9NQV7)
# T1 construct: 1.25 nM hPRDM9 (amino acids 195-385)
# T1 sequence (Q9NQV7 195-385): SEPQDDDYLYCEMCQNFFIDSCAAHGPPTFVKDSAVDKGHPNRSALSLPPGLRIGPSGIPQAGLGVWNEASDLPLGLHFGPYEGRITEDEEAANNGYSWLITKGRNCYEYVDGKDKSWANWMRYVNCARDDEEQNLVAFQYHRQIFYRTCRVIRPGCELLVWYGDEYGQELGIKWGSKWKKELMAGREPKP
# Assay: PRDM9 biochemical assay (radiometric, 3[H] methyl transfer from SAM to biotinylated histone H3 peptide)
# Conditions: 1 nM hPRDM9, 1 μM biotinylated H3(1-25)K4 peptide, 5 μM 3[H]-SAM, 55 μM un-labeled SAM, 25° C., 30 minutes
# Procedure: The PRDM9 biochemical assay was carried out using a radiometric format involving the transfer of ^3[H] methyl group from S-adenosyl methionine (SAM) to a biotinylated histone H3 peptide (H3(1-25)K4). 10 mM compounds in DMSO were diluted 20 fold in assay buffer (10 mM Tris-HCl, pH 8.5, 10 mM DTT, and 0.01% Triton X-100) before adding […] to a well in a 384 well polypropylene microplate plate and adding 8 μl of reaction mix (1.25 nM hPRDM9 (amino acids 195-385), 1.25 μM biotinylated H3 peptide in assay buffer). The ^3[H]-SAM and cold SAM stock solutions were diluted to 50 μM and 550 μM respectively in assay buffer before aliquoting 1 μl of 50 μM ^3[H]-SAM, 550 μM SAM into each well to initiate the reaction. The assay was performed at 25° C. at the final concentrations of 1 nM hPRDM9, 1 μM peptide, 5 μM ^3[H]-SAM, and 55 μM un-labeled SAM in assay buffer. The reaction was quenched after 30 minutes by adding 25 μl 7.5 M Guanidine-HCl. Quenched reactions were transferred to streptavidin coated Flashplates, diluted two fold in assay buffer, incubated for 1 hour, and read on a Perkin Elmer Topcount instrument. Compound activity was expressed relative to activity of 0.5% (v/v) DMSO treated samples and fit to a four parameter logistic equation to determine IC50 values.
row,SMILES,IC50
1,Cc1cc(N2CCC3C(Nc4nc(-c5cc(Cl)cc(Cl)c5)no4)CCC32)ccn1 (mixture of isomers) [Compound 27],36.4 µM
2,Cc1cc(N[C@@H]2[C@@H](O)CN(c3nc(-c4cc(Cl)cc(Cl)c4)no3)[C@H]2C)ccn1 (racemic) [Compound 29],13.3 µM
3,Cc1cc(N2C[C@H]3CCN(c4nc(-c5cc(Cl)cc(Cl)c5)no4)C[C@H]3C2)ccn1 (racemic) [Compound 36],27.8 µM
4,Cc1cc(N[C@H]2CC[C@H](Nc3nc(-c4cc(Cl)cc(Cl)c4)no3)C2)ccn1 (racemic) [Compound 50],16.4 µM
5,"Cc1cc(N2CC[C@@H]3CN(c4nc(-c5cc(Cl)cc(Cl)c5)no4)C[C@@H]3C2)ccn1 [Compound 1, 3-(3,5-dichlorophenyl)-5-((3aS,7aS)-5-(2-methylpyridin-4-yl)hexahydro-1H-pyrrolo[3,4-c]pyridin-2(3H)-yl)-1,2,4-oxadiazole]",5.16 µM
6,Cc1cc(N2CCC(C3CCCN(c4nc(-c5cc(Cl)cc(Cl)c5)no4)C3)CC2)ccn1 (stereo not drawn) [Compound 6],11.3 µM
7,Cc1cc(NC2CCCC(Nc3nc(-c4cc(Cl)cc(Cl)c4)no3)CC2)ccn1 (stereo not drawn) [Compound 7],4.85 µM
8,Cc1cc(NC(C)C2CCCN(c3nc(-c4cc(Cl)cc(Cl)c4)no3)C2)ccn1 (stereo not drawn) [Compound 11],19.7 µM
9,Cc1cc(NC[C@H]2CCCN2c2nc(-c3cc(Cl)cc(Cl)c3)no2)ccn1 [Compound 12],41.5 µM
10,Cc1cc(N2CCC3(CC2)CCN(c2nc(-c4cc(Cl)cc(Cl)c4)no2)CC3)ccn1 [Compound 15],31.6 µM
11,Cc1cc(NCCCN(C)c2nc(-c3cc(Cl)cc(Cl)c3)no2)ccn1 [Compound 16],11.5 µM
12,Cc1cc(N2CCC3(CCN(c4nc(-c5cc(Cl)cc(Cl)c5)no4)CC3)C2)ccn1 [Compound 20],7.79 µM
13,Cc1cc(N2CCC(CCNc3nc(-c4cc(Cl)cc(Cl)c4)no3)CC2)ccn1 [Compound 22],18.6 µM
14,CCC1(CNc2ccnc(C)c2)CCN(c2nc(-c3cc(Cl)cc(Cl)c3)no2)C1 (stereo not drawn) [Compound 23],17.8 µM
15,Cc1cc(N2CC3CC(Nc4nc(-c5cc(Cl)cc(Cl)c5)no4)CC3C2)ccn1 (stereo not drawn) [Compound 24],5.34 µM
16,Cc1cc(NC2CCCC(Nc3nc(-c4cc(Cl)cc(Cl)c4)no3)C2)ccn1 (stereo not drawn) [Compound 30],28.2 µM
17,CCC1(CNc2nc(-c3cc(Cl)cc(Cl)c3)no2)CCN(c2ccnc(C)c2)CC1 [Compound 32],2.21 µM
18,Cc1cc(N2CCC3(CC2)CC3Nc2nc(-c3cc(Cl)cc(Cl)c3)no2)ccn1 (stereo not drawn) [Compound 34],2.2 µM
19,Cc1cc(NCC2(O)CCN(c3nc(-c4cc(Cl)cc(Cl)c4)no3)C2)ccn1 (stereo not drawn) [Compound 37],15.5 µM
20,Cc1cc(N2CCC3CN(c4nc(-c5cc(Cl)cc(Cl)c5)no4)CC32)ccn1 (stereo not drawn) [Compound 39],12.3 µM

row,SMILES,IC50
1,Cc1cc(N2CCC3(CCCN3c3nc(-c4cc(Cl)cc(Cl)c4)no3)C2)ccn1 (stereo not drawn) [Compound 41],3.92 µM
2,Cc1cc(N2CCCC(Nc3nc(-c4cc(Cl)cc(Cl)c4)no3)CC2)ccn1 (stereo not drawn) [Compound 42],35.8 µM
3,Cc1cc(NCC(F)CNc2nc(-c3cc(Cl)cc(Cl)c3)no2)ccn1 (stereo not drawn) [Compound 43],13.3 µM
4,Cc1cc(NCC2CN(c3nc(-c4cc(Cl)cc(Cl)c4)no3)C2)ccn1 [Compound 49],40.2 µM
5,Cc1cc(N2CCC(N(c3nc(-c4cc(Cl)cc(Cl)c4)no3)C3CC3)CC2)ccn1 [Compound 51],7.29 µM
6,Cc1cc(N2CC(CCNc3nc(-c4cc(Cl)cc(Cl)c4)no3)C2)ccn1 [Compound 52],29.4 µM
7,Cc1cc(NC2CCC(Nc3nc(-c4cc(Cl)cc(Cl)c4)no3)CC2)ccn1 (stereo not drawn) [Compound 54],26.1 µM
8,Cc1cc(N2CCC(O)(CNc3nc(-c4cc(Cl)cc(Cl)c4)no3)C2)ccn1 (stereo not drawn) [Compound 56],28 µM
9,Cc1cc(N(C)CCCCNc2nc(-c3cc(Cl)cc(Cl)c3)no2)ccn1 [Compound 58],24 µM
10,Cc1cc(NCC2(C)CCN(c3nc(-c4cc(Cl)cc(Cl)c4)no3)CC2)ccn1 [Compound 64],3.58 µM
11,Cc1cc(N2CCC(C3CCN(c4nc(-c5cc(Cl)cc(Cl)c5)no4)CC3)CC2)ccn1 [Compound 65],6.2 µM
12,Cc1cc(N2CCC(CNc3nc(-c4cc(Cl)cc(Cl)c4)no3)(c3ccccc3)CC2)ccn1 [Compound 67],4.44 µM
13,Cc1cc(N2CC3CCCN(c4nc(-c5cc(Cl)cc(Cl)c5)no4)C3C2)ccn1 (stereo not drawn) [Compound 68],2.8 µM
14,Cc1cc(NC2CCC(O)(CNc3nc(-c4cc(Cl)cc(Cl)c4)no3)CC2)ccn1 (stereo not drawn) [Compound 69],7.04 µM
15,Cc1cc(N2CC3CCC(Nc4nc(-c5cc(Cl)cc(Cl)c5)no4)CC3C2)ccn1 (stereo not drawn) [Compound 70],6.9 µM
16,Cc1cc(N2CCC3CN(c4nc(-c5cc(Cl)cc(Cl)c5)no4)CCC32)ccn1 (stereo not drawn) [Compound 71],27.7 µM
17,Cc1cc(N2CCC(C3CCN(c4nc(-c5cc(Cl)cc(Cl)c5)no4)C3)CC2)ccn1 (stereo not drawn) [Compound 77],2.63 µM
18,Cc1cc(N2CCN(c3nc(-c4cc(Cl)cc(Cl)c4)no3)CC2)ccn1 [Compound 79],19.1 µM
19,Cc1cc(N2CCC3(CC2)CC3Nc2nc(-c3cc(Cl)cc(Cl)c3)no2)ccn1 (stereo not drawn) [Compound 80],2.83 µM
20,Cc1cc(NC[C@H]2CCN(c3nc(-c4cc(Cl)cc(Cl)c4)no3)C2)ccn1 [Compound 81],13.3 µM

# Stronger by IC50, values ahead:
row,IC50,SMILES
1,0.36 µM,Cc1cc(N2CCC3(CCN(c4nc(-c5cc(Cl)cc(Cl)c5)no4)C3)C2)ccn1 (stereo not drawn) [Compound 4]
2,0.804 µM,Cc1cc(N2CCC(F)(CNc3nc(-c4cc(Cl)cc(Cl)c4)no3)CC2)ccn1 [Compound 8]
3,0.0225 µM,Cc1cc(N2CCC3(CCC(=O)N(c4nc(-c5cc(Cl)cc(Cl)c5)no4)C3)CC2)ccn1 [Compound 28]
4,1.52 µM,Cc1cc(N2CCC3(CCCC3Nc3nc(-c4cc(Cl)cc(Cl)c4)no3)CC2)ccn1 (stereo not drawn) [Compound 33]
5,0.16 µM,Cc1cc(N2CCC(CN(C)c3nc(-c4cc(Cl)cc(Cl)c4)no3)CC2)ccn1 [Compound 38]
6,0.0803 µM,Cc1cc(N2CCC3(CC2)CN(c2nc(-c4cc(Cl)cc(Cl)c4)no2)CCO3)ccn1 [Compound 40]
7,0.5 µM,Cc1cc(N2CC(C3CCCCN3c3nc(-c4cc(Cl)cc(Cl)c4)no3)C2)ccn1 (stereo not drawn) [Compound 44]
8,0.34 µM,Cc1cc(N2CC3CN(c4nc(-c5cc(Cl)cc(Cl)c5)no4)CC3C2)ccn1 (stereo not drawn) [Compound 45]
9,0.47 µM,Cc1cc(NC2CCC3CN(c4nc(-c5cc(Cl)cc(Cl)c5)no4)CC3C2)ccn1 (stereo not drawn) [Compound 66]
10,1.13 µM,Cc1cc(NC2CCCN(c3nc(-c4cc(Cl)cc(Cl)c4)no3)CC2)ccn1 (stereo not drawn) [Compound 74]
11,0.08 µM,"COc1cc(OC)cc(-c2nc(N3CCCC4(CCN(c5ccnc(C)c5)CC4)C3)no2)c1 [Compound 85, 5-(3,5-dimethoxyphenyl)-3-(9-(2-methylpyridin-4-yl)-2,9-diazaspiro[5.5]undecan-2-yl)-1,2,4-oxadiazole]"
12,0.28 µM,COc1cc(Cl)cc(-c2nc(N3CCCC4(CCN(c5ccnc(C)c5)CC4)C3)no2)c1 [Compound 86]
13,0.47 µM,COc1cccc(-c2nc(N3CCCC4(CCN(c5ccnc(C)c5)CC4)C3)no2)c1 [Compound 87]
14,0.06 µM,Cc1cc(N2CCC3(CCCN(c4noc(-c5cccc(Cl)c5)n4)C3)CC2)ccn1 [Compound 88]
15,0.08 µM,CCN1CCN(c2noc(-c3cc(OC)cc(OC)c3)n2)CC12CCN(c1ccnc(C)c1)CC2 [Compound 89]
16,0.118 µM,COc1cc(OC)cc(-c2nc(N3CCN(C)C4(CCN(c5ccnc(C)c5)CC4)C3)no2)c1 [Compound 90]
17,0.15 µM,"COc1cc(OC(F)(F)F)cc(-c2nc(N3CCCC4(CCN(c5ccnc(C)c5)CC4)C3)no2)c1 [Compound 91, 5-(3-methoxy-5-(trifluoromethoxy)phenyl)-3-(9-(2-methylpyridin-4-yl)-2,9-diazaspiro[5.5]undecan-2-yl)-1,2,4-oxadiazole]"
18,0.069 µM,Cc1cc(N2CCC3(CCCN(c4noc(-c5cc(OC(F)F)cc(OC(F)F)c5)n4)C3)CC2)ccn1 [Compound 92]
19,0.06 µM,"COc1cc(OC)cc(-c2noc(N3CCN(CC(F)(F)F)C4(CCN(c5ccnc(C)c5)CC4)C3)n2)c1 [Compound 93, 3-(3,5-dimethoxyphenyl)-5-(9-(2-methylpyridin-4-yl)-1-(2,2,2-trifluoroethyl)-1,4,9-triazaspiro[5.5]undecan-4-yl)-1,2,4-oxadiazole]"
20,0.109 µM,COCCN1CCN(c2nc(-c3cc(OC)cc(OC)c3)no2)CC12CCN(c1ccnc(C)c1)CC2 [Compound 94]
21,0.044 µM,Cc1cc(N2CCC3(CC2)CN(c2nc(-c4cc(OC5CC5)cc(OC5CC5)c4)no2)CCN3C)ccn1 [Compound 95]
22,0.103 µM,CCOc1cc(OCC)cc(-c2noc(N3CCN(C)C4(CCN(c5ccnc(C)c5)CC4)C3)n2)c1 [Compound 96]
23,1.37 µM,Cc1cc(N2CCC3(CC2)CN(c2nc(-c4cc(OC(C)C)cc(OC(C)C)c4)no2)CCN3C)ccn1 [Compound 97]
